What was measured:
[1] = system: Hepatitis B virus; test: Antiviral activity against Hepatitis B virus infected in human HepG2.2.15 cells assessed as inhibition of HBsAg secretion at 5 uM after 9 days by ELISA relative to control; type: functional; conditions: HepG2.2.15, 216 h
[2] = system: HepG2 2.2.15; test: Cytotoxicity against human HepG2.2.15 cells after 9 days by MTT assay; type: functional; conditions: HepG2 2.2.15, 216 h
[3] = system: Hepatitis B virus; test: Antiviral activity against Hepatitis B virus infected in human HepG2.2.15 cells assessed as inhibition of HBeAg secretion at 5 uM after 9 days by ELISA relative to control; type: functional; conditions: HepG2.2.15, 216 h
[4] = system: Hepatitis B virus; test: Antiviral activity against Hepatitis B virus infected in human HepG2.2.15 cells assessed as inhibition of HBeAg secretion at 20 uM after 9 days by ELISA relative to control; type: functional; conditions: HepG2.2.15, 216 h
[5] = system: Duck hepatitis B virus; test: Antiviral activity against DHBV infected in duck assessed as inhibition of viral DNA level in serum at 10 mg/kg, po administered once daily measured on day 10 by SYBR Green I dye-based FQ-PCR analysis relative to control; type: functional; conditions: 240 h
[6] = system: Duck hepatitis B virus; test: Antiviral activity against DHBV infected in duck assessed as inhibition of viral DNA level in serum at 10 mg/kg, po administered once daily measured on day 15 by SYBR Green I dye-based FQ-PCR analysis relative to control; type: functional; conditions: 360 h
[7] = system: Hepatitis B virus; test: Antiviral activity against Hepatitis B virus infected in human HepG2.2.15 cells assessed as inhibition of intracellular HBV DNA level at 20 uM measured on day 9 by FQ-PCR analysis; type: functional; conditions: HepG2.2.15, 216 h
[8] = system: Hepatitis B virus; test: Antiviral activity against Hepatitis B virus harboring rtV173L/L180M/M204V mutant infected in HepGRL1 cells assessed as inhibition of intracellular HBV DNA level at 20 uM measured on day 9 by FQ-PCR analysis relative to control; type: functional; conditions: 216 h
[9] = system: Hepatitis B virus; test: Antiviral activity against Hepatitis B virus harboring rtV173L/L180M/M204V mutant infected in HepGRL1 cells assessed as inhibition of intracellular HBV DNA level at 20 uM measured on day 6 by FQ-PCR analysis relative to control; type: functional; conditions: 144 h
[10] = system: Hepatitis B virus; test: Antiviral activity against Hepatitis B virus infected in human HepG2.2.15 cells assessed as intracellular HBV DNA levels at 20 uM measured on day 6 by FQ-PCR analysis; type: functional; conditions: HepG2.2.15, 144 h
[11] = system: Hepatitis B virus; test: Antiviral activity against Hepatitis B virus infected in human HepG2.2.15 cells assessed as inhibition of HBsAg secretion at 20 uM after 9 days by ELISA relative to control; type: functional; conditions: HepG2.2.15, 216 h
[12] = system: Duck hepatitis B virus; test: Antiviral activity against DHBV infected in duck assessed as inhibition of viral DNA level in liver at 10 mg/kg, po administered once daily measured on day 10 by SYBR Green I dye-based FQ-PCR analysis relative to control; type: functional; conditions: 240 h
[13] = system: Duck hepatitis B virus; test: Antiviral activity against DHBV infected in duck assessed as inhibition of viral DNA level in liver at 10 mg/kg, po administered once daily measured on day 15 by SYBR Green I dye-based FQ-PCR analysis relative to control; type: functional; conditions: 360 h
[14] = system: Human immunodeficiency virus 1; test: Antiviral activity against HIV1 infected in human C8166 cells assessed as reduction in viral infection by measuring inhibition of syncytia formation incubated for 3 to 7 days by p24 detection based ELISA; type: functional, organism-based; conditions: Human immunodeficiency virus 1, C8166

Q: With [N-]=[N+]=N[C@]1(CO)O[C@@H](n2cc(-c3nnn[nH]3)nn2)[C@@H](F)[C@@H]1O as the compound, how does the inhibition at 5 µM [1] read?
A: 40%

Q: What about the CC50 [2] of the same compound?
A: > 1000 µM

Q: And the inhibition at 5 µM [3]?
A: 20%

Q: Which results are given for [N-]=[N+]=N[C@]1(CO)O[C@@H](n2cc(C3CC3)nn2)[C@@H](F)[C@@H]1O?
A: inhibition at 5 µM [1]: 28.9%; CC50 [2]: > 1000 µM; inhibition at 5 µM [3]: 26.2%

Q: How did the inhibition at 5 µM [1] turn out when COC(=O)c1cn([C@@H]2O[C@@](CO)(N=[N+]=[N-])[C@@H](O)[C@@H]2F)nn1 was run?
A: 22%

Q: And the CC50 [2]?
A: 115 µM

Q: What about the inhibition at 5 µM [3] of the same compound?
A: 12.3%

Q: How did the inhibition at 20 µM [4] turn out when Nc1ccn([C@@H]2CS[C@H](CO)O2)c(=O)n1 [LAMIVUDINE] was run?
A: 22.1%

Q: What about the inhibition in vivo at 10 mg/kg [5] of the same compound?
A: 65.2%

Q: And the inhibition in vivo at 10 mg/kg [6]?
A: 85.7%

Q: And the inhibition at 20 µM [7]?
A: 85.7%

Q: What about the inhibition at 20 µM [8] of the same compound?
A: 12.9%

Q: What about the inhibition at 20 µM [9] of the same compound?
A: 10.8%

Q: And the inhibition at 20 µM [10]?
A: 75.4%

Q: What about the CC50 [2] of the same compound?
A: > 1000 µM

Q: And the inhibition at 20 µM [11]?
A: 47.7%

Q: And the inhibition in vivo at 10 mg/kg [12]?
A: 57.1%

Q: And the inhibition in vivo at 10 mg/kg [13]?
A: 75.6%

Q: [N-]=[N+]=N[C@]1(CO)O[C@@H](n2ccc(N)nc2=O)[C@@H](F)[C@@H]1O [RO-0622] was tested. Which EC50 [14] did it give?
A: 0.0003 µM

From ChEMBL document CHEMBL4251574, “Design, synthesis, and biological evaluation of new 1,2,3-triazolo-2'-deoxy-2'-fluoro- 4'-azido nucleoside derivatives as potent anti-HBV agents” (Eur J Med Chem, 2018)
